Assay results taken from the supplement of paper PMC10307832.

Columns and labels:
Assay in all cases: relative viability (nuclei count vs DMSO), 5 days (fraction); higher = more cells survive
[1] = compound: O[C@@H](COc1cccc2ncccc12)CN1CCN([C@@H]2c3ccccc3[C@@H]3[C@H](c4ccccc42)C3(F)F)CC1 [Zosuquidar] + O=C(CCCCCCC(=O)Nc1ccccc1)NO [Vorinostat] (partner 1 µM)
Method in brief: (§1)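 Lung cancer cell lines, seeded in 1536-well plates, were treated the following day by pin tool with a single drug or with five library-drug doses (not always all listed) in √10 steps on top of a fixed anchor-drug dose. Cells were fixed and nuclei stained in one step after 5 days, and nuclei were counted. Relative viability is the nuclei count for treated wells divided by that for vehicle wells, reported as medians of duplicate plates.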

[2] = compound: C1=CC(=CC=C1NC(=S)NNC2=C(C=C(C=C2[N+](=O)[O-])C(F)(F)F)[N+](=O)[O-])F [Kobe2602] + C[C@@H](Oc1cc(-c2cnn(C3CCNCC3)c2)cnc1N)c1c(Cl)ccc(F)c1Cl [Crizotinib] (partner 1 µM)
Method in brief: as §1

[3] = compound: COc1cc2nccc(Oc3ccc(NC(=O)C4(C(=O)Nc5ccc(F)cc5)CC4)cc3)c2cc1OC [Cabozantinib] + CC(=O)c1c(C)c2cnc(Nc3ccc(N4CCNCC4)cn3)nc2n(C2CCCC2)c1=O [Palbociclib] (partner 0.5 µM)
Method in brief: as §1

Cell Line | relative viability ([1]; first compound 0.01 µM) | relative viability ([1]; first compound 0.03162 µM) | relative viability ([1]; first compound 0.1 µM) | relative viability ([1]; first compound 0.3162 µM) | relative viability ([1]; first compound 1 µM) | relative viability ([2]; first compound 0.2 µM) | relative viability ([2]; first compound 0.6325 µM) | relative viability ([2]; first compound 2 µM) | relative viability ([2]; first compound 6.325 µM) | relative viability ([2]; first compound 20 µM) | relative viability ([3]; first compound 0.02 µM) | relative viability ([3]; first compound 0.06325 µM) | relative viability ([3]; first compound 0.6325 µM) | relative viability ([3]; first compound 2 µM) | relative viability ([3]; first compound 0.2 µM)
PC-3 [JPC-3] | 0.817 | 0.91 | 0.589 | 0.916 | 0.416 | 0.933 | 1.02 | 0.946 | 0.925 | 0.974 | 0.574 | 0.559 | 0.514 | 0.636 | 
HARA | 0.657 | 0.526 | 0.606 | 0.556 | 0.459 | 1.05 | 1.01 | 1.05 | 1.24 | 0.981 | 0.323 | 0.29 | 0.344 | 0.263 | 0.218
NCI-H2347 | 0.531 | 0.713 | 0.499 | 0.615 | 0.56 | 0.613 | 0.643 | 0.612 | 0.712 | 0.785 | 0.474 | 0.466 | 0.478 | 0.401 | 0.49
LOU-NH91 | 0.854 | 0.917 | 0.772 | 0.941 | 0.919 | 0.736 | 0.763 | 0.745 | 0.707 | 0.77 | 0.527 | 0.518 | 0.549 | 0.557 | 0.558
LC-2-ad | 0.681 | 0.774 | 0.722 | 0.683 | 0.674 | 0.433 | 0.465 | 0.464 | 0.547 | 0.494 | 0.569 | 0.569 | 0.367 | 0.341 | 0.472
LCLC-97TM1 | 0.663 | 0.929 |  | 0.73 | 0.777 | 0.405 | 0.336 | 0.242 | 0.372 | 0.282 | 0.189 | 0.228 | 0.253 | 0.222 | 0.221
EKVX | 0.819 | 0.736 | 0.595 | 0.691 | 0.656 | 1.11 | 0.705 | 0.865 | 0.887 | 0.956 | 0.397 | 0.41 | 0.394 | 0.544 | 0.307
NCI-H441 | 0.666 | 0.97 | 0.728 | 0.867 | 0.962 | 0.719 | 0.662 | 0.606 | 0.876 | 0.713 | 0.157 | 0.286 | 0.23 | 0.184 | 0.181
HCC-827 | 0.761 | 0.786 | 0.714 | 0.849 | 0.999 | 0.925 | 0.921 | 0.903 | 0.91 | 0.859 | 0.415 | 0.535 | 0.577 | 0.399 | 
NCI-H838 | 0.744 | 0.793 | 0.791 | 0.755 | 0.806 | 0.777 | 0.964 | 0.759 | 0.909 | 0.83 | 0.216 | 0.244 | 0.218 | 0.21 | 0.231
CAL-12T | 0.843 | 0.692 | 0.77 | 0.813 | 0.845 | 0.604 | 0.569 | 0.618 | 0.641 | 0.549 | 0.435 | 0.583 | 0.497 | 0.572 | 0.408
NCI-H2342 | 0.753 | 0.807 | 0.686 | 0.813 | 0.81 |  |  |  |  |  | 0.519 | 0.466 | 0.501 | 0.495 | 0.493
SW 900 | 0.431 | 0.464 |  | 0.567 | 0.527 |  |  |  |  |  | 0.585 | 0.601 | 0.55 | 0.492 | 0.436
IA-LM | 1.07 | 0.967 |  | 1.07 | 1.04 | 0.64 | 0.671 | 0.718 | 0.789 | 0.703 |  |  |  |  | 
EPLC-272H | 0.464 | 0.606 | 0.399 | 0.503 | 0.74 | 0.772 | 0.905 | 0.967 | 0.899 | 0.914 | 0.3 | 0.317 | 0.34 | 0.305 | 0.277
A-427 | 0.86 | 0.853 | 0.836 | 0.94 | 0.511 | 0.898 | 0.903 | 0.843 | 1 | 1.01 | 0.524 | 0.584 | 0.493 | 0.527 | 0.521
NCI-H727 | 1.12 | 1.32 |  | 1.11 | 1.29 | 0.767 | 0.69 | 0.776 | 0.64 | 0.865 | 0.648 | 0.689 | 0.62 | 0.616 | 0.577
NCI-H1993 | 0.958 | 0.603 |  | 0.835 | 0.885 | 0.82 | 0.89 | 0.72 | 0.753 | 0.782 | 0.661 | 0.537 | 0.571 | 0.437 | 0.461
LK-2 | 0.232 | 0.311 | 0.283 | 0.298 | 0.335 | 0.248 | 0.273 | 0.231 | 0.271 | 0.257 |  | 0.969 | 0.69 | 0.636 | 0.704
SW 1573 | 0.584 | 0.831 | 1.23 | 0.851 | 0.928 | 0.788 | 0.879 | 0.736 | 0.863 | 0.912 | 0.422 | 0.456 | 0.39 | 0.308 | 0.364
NCI-H1915 | 0.536 | 0.512 | 0.457 | 0.57 | 0.549 | 0.886 | 0.92 | 0.897 | 0.931 | 0.91 | 0.584 | 0.57 | 0.506 | 0.55 | 0.518
NCI-H661 | 0.802 | 0.834 | 0.763 | 0.828 | 0.778 | 0.933 |  | 0.971 | 1.06 | 1.1 | 0.385 | 0.43 | 0.422 | 0.463 | 0.425
NCI-H520 | 0.639 | 0.51 | 0.71 | 0.664 | 0.835 | 0.694 | 0.711 | 0.746 | 0.757 | 0.763 | 0.266 | 0.245 | 0.228 | 0.203 | 0.268
